The record followed here is patent US11685741B2, “Fluorescent probes” (University of Massachusetts, priority 2017, dated 2023).

A short description of series [1]: Binding studies of sensor with Fe3+ (Job's plot, titration, EDTA reversibility). Conditions: 1:1 sensor-Fe^3+ complex; ACN/Tris-HCl buffer pH 7.3. The procedure:
Job's method and UV-vis spectra were applied to study the binding stoichiometry between Rh-PK and Fe^3+ and monitored by the absorbance at 555 nm. […] The binding constant of this complex was calculated following a method reported previously (G. E. Tumambac, et al., Tetrahedron 2004, 60, 11293-11297), using absorption values at […] by the equations described below, and was determined to be 1.54×10^7 […].
The equations below was used to calculate the binding constants with stoichiometry of 1:1. L+S↔LS where L=sensor, S=Fe3+ and LS=sensor-Fe^3+ complex. The apparent binding constant is given by
[formula] Fe is the fraction of L that formed a complex, [LS]e is concentration at equilibrium, [L]0 is the initial concentration. Au, Am, and Ac are the absorbances of solutions of L (before any Fe^3+ was added), during the titration and at saturation, respectively. The concentration of free Fe^3+ at equilibrium, [S]e, is found with the following identity. [S]e=[S]o−[LS]e=[S]o−Fc[L]o The apparent binding constant K can then be calculated from
Reversibility experiments were carried out by adding EDTA to the complex in ACN/Tris-HCl buffer (10 mM, pH 7.3, v/v 3:1). […]
The stoichiometry of RhHPA-Fe^3+ was measured using Job's plot and mole ratio plots methods. B. Valeur, Molecular Fluorescence: Principles and Applications, Wiley-VCH. […] To determine the binding constant of chemosensor, a fluorescence titration of different amounts of Fe^3+ into the acetonitrile solution of sensor was carried out. […] The determination of the binding constant of RhHPA was calculated using the following equation: F−Fmin=[…](Fmax−Fmin)/Kd where F is the observed fluorescence, Fmax is the maximum fluorescence for the RhHPA-Fe^3+ complex at concentration of the equal reacted between sensor and metal cation, Fmin is the fluorescence intensity for occurring RhHPA-Fe^3+.
Absorption enhancement observation at 558 nm was plotted against the molar value of the [Fe^3+]/[Fe^3+]+RhHPA and [Fe^3+]/RhHPA. […] Binding constant of fluorescent sensor “RhHPA” was calculated and it was found as K=1.27×10^7 M^−1. […]

Series [2] is described as follows: Metal ion sensing: UV-vis and fluorescence response to Fe3+ and other metal ions. Conditions: one equivalent Fe^3+, ACN/Tris-HCl buffer pH 7.3. On the procedure:
The spectroscopic properties of Rh-PK and its interactions with various metal ions were evaluated in acetonitrile (ACN)/Tris-HCl buffer (10 mM, pH 7.3, v/v, 3:1). […] The changes in UV-Vis spectra after the addition of various ions are shown in FIG. 2, which is an absorbance spectrum of 100 μM sensor with various metal ions (100 μM for Ni^+2, Cu^+, Cu^+2, Zn^+2, Pb, Fe^+2, Fe^+3, Cr^+3, Hg^+2, Mn^+2, Ag^+, and Co^+2; 200 μM for K^+, Na^+, Ca^2+ and Mg^2+) in the ACN/Tris buffer (10 mM, pH 7.3, v/v 3:1).
When Fe^3+ was added into the solution of Rh-PK, a significant enhancement of fluorescence (>12-fold with 1.0 equiv of Fe^3+) was observed.
The interferences from the other metal ions with Rh-PK in its response to Fe^3+ was examined. […] Each of the 12 metal ions was pre-incubated with Rh-PK before 1 equiv. of Fe^3+ was added, the fluorescence response was then measured.
The stock solution of sensor and metal ions were prepared at the concentration of 1 mM. M. P. Walkees, Mutat. Res., 2003, 533, 107; M. Waisberg, et al., Toxicology, 2003, 192, 95.
The UV-vis. and fluorescence spectra of RhHPA to various possible interfering metal ions and its selectivity for Fe^3+ were examined. See FIG. 6, which is a plot of absorbance dependent on the concentration of Fe^3+ in the range from 0 to 2 equivalents in ACN/Tris-HCl buffer (10 mM, pH 7.3, v/v 2:1); FIG. 7, which is a Job's plot between Fe^3+ and RhHPA, indicating the 1:1 binding mode for sensor and iron(III). […] Addition of Na^+, K^+, Ca^2+, Mg^2+, Cr^3+, […], Hg^2+, Cu^2+, Pb^2+, Zn^2+, Fe^2+, Co^2+, Ni^2+, and Ag^+ exerted little or no effect on the emission of RhHPA, while remarkable fluorescence enhancement was detected upon the addition of Fe^3+ by excitation of the rhodamine fluorophore at 535 nm.
Experiments of iron(III) with other metal ions were investigated by means of the fluorescence response of RhHPA toward Fe^3+ in the presence of various other metal ions such as Na^+, K^+, Ca^2+, Mg^2+, Cr^3+, Hg^2+, Cu^2+, Pb^2+, Zn^2+, Fe^2+, Co^2+, Ni^2+, Cd^2+, and Ag^+. […] for Fe^3+ had no changes with addition of other metal ions. Cu(II) and Zn(II) increased the fluorescence intensity slightly.

A short description of series [3]: Effect of pH on fluorescence of sensor and its Fe complex. The series is classed as physicochemical. The note with it: pH adjusted with HCl/NaOH.
Series [4] deals with Bovine aortic endothelial cells (BAEC). Put plainly: Confocal imaging of Fe3+ with RhHPA in BAEC cells. The class given is cell-based. The procedure: Primary cultured Bovine aortic endothelial cells (BAEC) were passaged in Endothelial Basal Medium (Lonza) containing 5% fetal bovine serum. Before the experiment, the cells were cultured to about 8th generation. For experiment preparation, the cells were routinely subcultured using 0.05% trypsin-EDTA solution. The cells were seeded on the 25 cm^2 flask and medium change every two days until a 70% confluency before transferring into disks. The cells were seeded on the 1 cm^2 disk and a medium change the next day.
To evaluate the ability of RhHPA to capture Fe^3+ ions in cells, BAEC cells were incubated with the sensor (10 μM) for 30 min.
BAEC cells were incubated with 10 μM of ferric chloride (FeCl3) at 37° C. for overnight, then 10 μM of RhHPA was added to BAEC cells and was incubated at 37° C. for 30 min.
For the second control experiment, an Fe^3+-chelator SIH was added to iron-loaded and non-iron-loaded cells with RhHPA.
BAEC cells (without Fe^3+ treatment) were treated with RhHPA, MitoTracker Green FM and LysoTracker blue DND-22. As shown in FIG. 20A to FIG. 20H, there are partial colocalization between RhHPA-Fe^3+ and the MitoTracker (FIG. 20E) as well as that between RhHPA-Fe^3+ and the LysoTracker (FIG. 20F); however, a […] colocalization was observed among RhHPA-Fe^3+, MitoTracker and LysoTracker (FIG. 20G).

Series [5] concerns cells in the culture experiments. Put plainly: Cell permeability and toxicity in the culture experiments. The series is classed as cell-based.

Each structure is given as a SMILES string. “And” between values parts separate entries of the source, which are not always exact repeats. Equal entries are not always repeated. “Also recorded” adds a separate entry of the source.

Take `CCN(CC)c1ccc2c(c1)Oc1cc(N(CC)CC)ccc1C21c2ccccc2C(=O)N1/N=C/c1cccc(CO)n1` [RhHPA, (E)-3′,6′-bis(diethylamino)-2-(((6-(hydroxymethyl)pyridin-2-yl)methylene)amino)spiro[isoindoline-1,9′-xanthen]-3-one]: the apparent binding constant in series [1] is 1.27e+07 M⁻¹. Besides, in series [2], the “increase in fluorescence emission intensity” value is roughly 20 fold. For the same molecule, the “pH range over which sensor (and Fe complex) fluorescence is stable / working pH range” value in series [3] was 5-9 and 5 to 9. Besides, the “increase in fluorescent intensity in Fe^3+-treated cells” value in series [4] (10 μM FeCl3 overnight, then 10 μM RhHPA 30 min) is listed as roughly 8 fold. In addition, the “fluorescence enhancement in cells” value in series [4] (10 μM sensor, 30 min, no Fe^3+ supplementation) is 4 fold. Further, the “change in fluorescence signal, Fe^3+ then chelator” value in series [4] (20 μM Fe^3+ overnight, then 100 μM SIH, then 10 μM RhHPA, versus Fe(III) supplement) is recorded as “large decrease in fluorescence signal”. Moreover, the “change in fluorescence signal with chelator” value in series [4] (100 μM SIH, non-iron-loaded cells) is “small decrease in fluorescence signal”. The toxicity for cells result in series [5] (culture experiments) is recorded as “non-toxic”. In series [5] (live cells in culture), the cell permeability result is listed as “excellent cell permeability; also recorded: cell permeable”.
